Here are results for 4 compounds from BindingDB's records for doi:10.1021/jm070521y (Wyeth Research, 2007).

pEC50, pKi: −log10 of the molar value.

For test [1], the target named is T1, 5-hydroxytryptamine receptor 6 (Homo sapiens, UniProt P50406). Kind of test: Radioligand Labeled Binding Assay. The following applies: pH 7.4; 22 °C. As for the experimental part: (§1) IC50 values for each test compound were determined from nonlinear regression analysis of data collected from ligand binding experiments. The inhibition constant (Ki) was calculated from IC50 value by the Cheng and Prusoff equation.
T1 sequence (P50406 whole entry): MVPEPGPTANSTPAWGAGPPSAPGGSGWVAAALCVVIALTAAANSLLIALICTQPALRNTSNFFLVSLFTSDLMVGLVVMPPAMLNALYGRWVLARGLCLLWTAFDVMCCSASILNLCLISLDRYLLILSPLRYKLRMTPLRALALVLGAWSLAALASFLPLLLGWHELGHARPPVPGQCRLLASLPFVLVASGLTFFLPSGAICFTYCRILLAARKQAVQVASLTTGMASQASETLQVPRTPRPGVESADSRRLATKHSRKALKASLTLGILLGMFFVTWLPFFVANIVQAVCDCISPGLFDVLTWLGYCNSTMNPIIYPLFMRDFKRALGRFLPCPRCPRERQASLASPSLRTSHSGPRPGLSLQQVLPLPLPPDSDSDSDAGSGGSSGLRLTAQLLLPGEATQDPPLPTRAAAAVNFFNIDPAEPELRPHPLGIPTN

Test [2] deals with T1, 5-hydroxytryptamine receptor 6. The test can be described thus: Radioligand Labeled Binding Assay and cAMP Production. The conditions noted are these: pH 7.4; 22 °C. As for the experimental part: as §1

Broadly, the pKi is the Ki on a negative log10 scale, so that one unit is a factor of ten. Low readings indicate a high Ki, high ones a low Ki. In test [1], `CC(=NNC(=N)N)c1cn(S(=O)(=O)c2ccccc2)c2ccccc12` [3-[(E)-{1-[1-(benzenesulfonyl)-1H-indol-3-yl]ethylidene}amino]guanidine] showed a pKi of 8.10.

As usually defined, the pEC50 is the negative decadic logarithm of the EC50, by convention in mol/L. A high value points to a small EC50. As for `COc1ccc(S(=O)(=O)n2cc(CCN)c3ccccc32)cc1OC` [2-{1-[(3,4-dimethoxybenzene)sulfonyl]-1H-indol-3-yl}ethan-1-amine], the pEC50 in test [2] was 7.76.

Regarding `NC(N)=NN=Cc1c[nH]c2ccc(Br)cc12` [3-[(E)-[(5-bromo-1H-indol-3-yl)methylidene]amino]guanidine], the negative logarithm of the Ki (pKi) in test [1] is 7.60.

In test [2], `Cc1nc(N)sc1S(=O)(=O)n1cc(CCN)c2ccccc21` [5-{[3-(2-aminoethyl)-1H-indole-1-]sulfonyl}-4-methyl-1,3-thiazol-2-amine] gave a negative-log EC50 (pEC50) of 8.02 and a pKi of 8.00.
